Key:
[1] = test system: Aβtotal from primary murine cortical neurons; assay: Aβtotal immunoprecipitation, primary murine cortical neurons infected with APP695; assay type: cell-based; conditions: primary murine cortical neurons infected with APP695, below 250 μM (5-50 μM)
Experimental: (§1) The cDNA coding for human APP695 is cloned in the Smal site of pSFV-1 as described previously (Simons et al., J. Neurosci. 16:899-908, 1996; Tienari et al., Embo. J. 15:5218-29, 1996). PSFV-1/huAPP695 constructs are linearized,with SpeI and run-off transcription using SP6 polymerase is performed to produce mRNA. The transcribed mix of APP and pSFV-helper are cotransfected into BHK cells by electroporation to yield recombinant SFV (Olkkonen et al., J. Neurosci. Res. 35:445-51, 1993). BHK cells are grown in DMEM/F12 supplemented with 5% fetal calf serum, 2 mM L-glutamine, 100 U/ml penicillin, and […] streptomycin. Twenty-four hours after transfection, the culture supernatant containing infective recombinant SFV is collected. Aliquots are snap-frozen in liquid nitrogen and stored at −70° C. until use.
All experiments are conducted on murine primary cortical neurons derived from E14 embryos according to established procedures (Annaert et al., J. Cell Biol. 147:277-294, 1999; Cupers et al., J. Cell Biol. 154:731-40, 2001; De Strooper et al., Nature 391:387-90, 1998). […]
Data are expressed as a percent of control and represent the mean±SD with n=6 and statistical significance determined by ANOVA with a Tukey's post hoc test at **p<0.01, ***p<0.001.

[2] = test system: Aβ42 from primary murine cortical neurons; assay: Aβ42 sandwich ELISA, primary murine cortical neurons infected with APP695; assay type: cell-based; conditions: primary murine cortical neurons infected with APP695, 5 μM, p<0.01, n=6
Experimental: as §1, with “use. […]” for “use.”
The levels of the longer Aβ42 peptide are quantified in both the conditioned media and cell extracts using a sandwich ELISA test (De Strooper et al., Nature 391:387-90, 1998; Vanderstichele et al., Amyloid. 7:245-58, 2000). […] Finally HRP substrate is added and the colorimetric reaction is quantitated spectrophotometrically using a Victor 2 (Wallac) equipped with a 450 nm filter. […] The Aβ42 concentrations in the samples are finally calculated based on the Aβ42 standards nonlinear regression equation and using Mathematica 4.1 software package (Wolfram Research, Champaign, Ill.). […]

For `Cc1cccc(Nc2cc(Cl)nc(SCC(=O)O)n2)c1C` [pirinixic acid], the “effect on Aβtotal” value [1] was “no significant effect” and the “decrease in Aβ42” value [2] was 20%.
